Patent US7601357B2 (priority 2005, dated 2009)
Values joined by “and” are separate entries in the source; they are usually repeats but may differ in a detail not shown here. Equal values may be shown once. Read-outs that look alike come from different tables or passages of the source.

Experiments:
LIPY = target: T1, LIPY (Mycobacterium tuberculosis, UniProt I6Y2J4); format: biochemical
T1 construct: The 24 open-reading frames (ORFs) were amplified from the genomic DNA of M. tuberculosis H37Rv; 6xHis (pET200 D-TOPO N-terminal fusion) (N); made in house; host or cells: E. coli BL21 Star (DE3)
T1 sequence (I6Y2J4 1-437): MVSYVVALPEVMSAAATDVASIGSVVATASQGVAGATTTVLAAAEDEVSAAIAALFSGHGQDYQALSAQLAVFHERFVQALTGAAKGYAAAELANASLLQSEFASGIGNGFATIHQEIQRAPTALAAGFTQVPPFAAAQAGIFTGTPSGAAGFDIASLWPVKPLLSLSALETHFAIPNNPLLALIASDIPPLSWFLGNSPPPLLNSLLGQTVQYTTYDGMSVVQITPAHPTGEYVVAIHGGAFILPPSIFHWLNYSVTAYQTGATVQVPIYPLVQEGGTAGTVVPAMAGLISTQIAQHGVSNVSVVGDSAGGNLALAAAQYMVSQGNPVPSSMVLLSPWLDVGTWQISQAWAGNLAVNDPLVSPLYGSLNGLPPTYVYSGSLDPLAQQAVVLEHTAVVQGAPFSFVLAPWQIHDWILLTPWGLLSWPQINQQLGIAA

[1] = format: biochemical, M. tuberculosis; settings: pH 8

In the case of CC(=O)[O-].[K+] [CH3COO.K, potassium acetate], the “Effect of salt on LIPY activity (in words)” value (from here on “Effect of salt”) (LIPY) is reported as “enhanced the activity” and the “LIPY activity (triolein hydrolase) Mean ± SD” value (LIPY) is reported as 692.6 ± 57.0 nmol/mg/min and 749.0 ± 73.3 nmol/mg/min.

With CC(=O)[O-].[Na+] [CH3COO.Na, sodium acetate] the “Effect of salt” value (LIPY) was “enhanced the activity” and the “LIPY activity (triolein hydrolase) Mean ± SD” value (LIPY) was 681.7 ± 80.3 nmol/mg/min and 729.3 ± 96.5 nmol/mg/min.

For [Ca+2].[Cl-].[Cl-] [CaCl2], the “Effect of salt” value (LIPY) was “inhibited”.

In the case of [Cl-].[Cl-].[Co+2] [CoCl2], the “Effect of salt” value (LIPY) is reported as “inhibited the activity”.

For CCOP(=O)(OCC)Oc1ccc([N+](=O)[O-])cc1 [E-600, diethyl-p-nitrophenyl phosphate, reference compound], the “Inhibition of LIPY activity” value (LIPY; 0.5 µM) was 99.5%.

For [Cl-].[K+] [KCl], the “Effect of salt” value (LIPY) was “enhanced the activity” and the “LIPY activity (triolein hydrolase) Mean ± SD” value (LIPY) was 675.2 ± 103.5 nmol/mg/min and 686.8 ± 68.8 nmol/mg/min.

With [Cl-].[Cl-].[Mg+2] [MgCl2] the “Effect of salt” value (LIPY) was “inhibited the activity” and the “LIPY activity (triolein hydrolase) Mean ± SD” value (LIPY) was 306.3 ± 111.1 nmol/mg/min and 219.9 ± 34.3 nmol/mg/min.

In the case of [Cl][Mn][Cl] [MnCl2], the “Effect of salt” value (LIPY) is reported as “inhibited the activity”.

For [Cl-].[Na+] [NaCl], the “Effect of salt” value (LIPY) was “enhanced the activity” and the “LIPY activity (triolein hydrolase) Mean ± SD” value (LIPY) was 681.3 ± 87.2 nmol/mg/min.

With CCCCCCCCCCCCOS(=O)(=O)[O-].[Na+] [SDS, sodium dodecyl sulfate, reference compound] the “Effect of detergent on LIPY lipase activity” value (“Effect of detergent” for short) (LIPY; concentrations above 2 mM) was “severely inhibited” and the “Effect of detergent” value (LIPY; concentrations up to 2 mM) was “stimulated slightly”.

With CCCCCCCCCCCC(=O)OCCOCCOCCOCCOCCOCCOCCOCCOCCOCCOCCOCCOCCOCCOCCOCCOCCOCCOCCOCCOCC(OCCOCCOCCOCCOCCOCCOCCOCCOCCOCCOCCOCCOCCOCCOCCOCCOCCOCCOCCOCCO)C1OCC(OCCOCCOCCOCCOCCOCCOCCOCCOCCOCCOCCOCCOCCOCCOCCOCCOCCOCCOCCOCCO)C1OCCOCCOCCOCCOCCOCCOCCOCCOCCOCCOCCOCCOCCOCCOCCOCCOCCOCCOCCOCCO (stereo not shown) [Tween-20, polyethylene glycol sorbitan monolaurate, reference compound] the “Effect of detergent” value (LIPY; all concentrations from 0.1-2.0%) was “inhibited”.

With [Cl-].[Cl-].[Zn+2] [ZnCl2] the “Effect of salt” value (LIPY) was “inhibited the activity”.

With “polyethylene glycol tert-octylphenyl ether [Triton X-100, reference compound]” the “Effect of detergent” value (LIPY; 0.1%) was “stimulated the activity” and the “Effect of detergent” value (LIPY; concentrations higher than 0.1%) was “inhibitory”.

B1: LIPJ: M. tuberculosis putative lipase/esterase gene product expressed in E. coli (protein, UniProt O07732 1-462, looked up)
Bifunctional lipase/adenylate …: MAQAPHIHRTRYAKCGDMDIAYQVLGDGPTDLLVLPGPFVPIDSIDDEPSLYRFHRRLASFSRVIRLDHRGVGLSSRLAAITTLGPKFWAQDAIAVMDAVGCEQATIFAPSFHAMNGLVLAADYPERVRSLIVVNGSARPLWAPDYPVGAQVRRADPFLTVALEPDAVERGFDVLSIVAPTVAGDDVFRAWWDLAGNRAGPPSIARAVSKVIAEADVRDVLGHIEAPTLILHRVGSTYIPVGHGRYLAEHIAGSRLVELPGTDTLYWVGDTGPMLDEIEEFITGVRGGADAERMLATIMFTDIVGSTQHAAALGDDRWRDLLDNHDTIVCHEIQRFGGREVNTAGDGFVATFTSPSAAIACADDIVDAVAALGIEVRIGIHAGEVEVRDASHGTDVAGVAVHIGARVCALAGPSEVLVSSTVRDIVAGSRHRFAERGEQELKGVPGRWRLCVLMRDDATRTR
modifications: expressed in E. coli
Molecule B1 has a TG hydrolase activity [1] of 0.04 nmol/mg/min.

B2: LIPQ: M. tuberculosis putative lipase/esterase gene product expressed in E. coli (protein, UniProt I6Y9F7 1-421, looked up)
Esterase LipQ: MHIASVTSRCSRAGAEALRQGAQLAADARDTCRAGALLLRGSPCAIGWVAGWLSAEFPARVVTGHALSRISPRSIGRFGTSWAAQRADQILHAALVDAFGPDFRDLVWHPTGEQSEAARRSGLLNLPHIPGPHRRYAAQTSDIPYGPGGRENLLDIWRRPDLAPGRRAPVLIQVPGGAWTINGKRPQAYPLMSRMVELGWICVSINYSKSPRCTWPAHIVDVKRAIAWVRENIADYGGDPDFITITGGSAGAHLAALAALSANDPALQPGFESADTAVQAAAPYYGVYDLTNAENMHEMMMPFLEHFVMRSRYVDNPGLFKAASPISYVHSEAPPFFVLHGEKDPMVPSAQSRAFSAALRDAGAATVSYAELPNAHHAFDLAATVRSRMVAEAVSDFLGVIYGRRMGARKGSLALSSPPAS
B2 showed a TG hydrolase activity [1] of 0.11 nmol/mg/min.

B3: LIPL: M. tuberculosis putative lipase/esterase gene product expressed in E. coli (protein, UniProt P71778 1-429, looked up)
Esterase/beta-lactamase LipL: MMVDTGVDHRAVSSHDGPDAGRRVFGAADPRFACVVRAFASMFPGRRFGGGALAVYLDGQPVVDVWKGWADRAGWVPWSADSAPMVFSATKGMTATVIHRLADRGLIDYEAPVAEYWPAFGANGKATLTVRDVMRHQAGLSGLRGATQQDLLDHVVMEERLAAAVPGRLLGKSAYHALTFGWLMSGLARAVTGKDMRLLFREELAEPLDTDGLHLGRPPADAPTRVAEIIMPQDIAANAVLTCAMRRLAHRFSGGFRSMYFPGAIAAVQGEAPLLDAEIPAANGVATARALARMYGAIANGGEIDGIRFLSRELVTGLTRNRRQVLPDRNLLVPLNFHLGYHGMPIGNVMPGFGHVGLGGSIGWTDPETGVAFALVHNRLLSPLVMTDHAGFVGIYHLIRQAAAQARKRGYQPVTPFGAPYSEPGAAAG
B3 gave a TG hydrolase activity [1] of 3.4 nmol/mg/min.

B4: LIPC: M. tuberculosis putative lipase/esterase gene product expressed in E. coli (protein, UniProt P96402 1-403, looked up)
Esterase LipC: MNQRRAAGSTGVAYIRWLLRARPADYMLALSVAGGSLPVVGKHLKPLGGVTAIGVWGARHASDFLSATAKDLLTPGINEVRRRDRASTQEVSVAALRGIVSPDDLAVEWPAPERTPPVCGALRHRRYVHRRRVLYGDDPAQLLDVWRRKDMPTKPAPVLIFVPGGAWVHGSRAIQGYAVLSRLAAQGWVCLSIDYRVAPHHRWPRHILDVKTAIAWARANVDKFGGDRNFIAVAGCSAGGHLSALAGLTANDPQYQAELPEGSDTSVDAVVGIYGRYDWEDRSTPERARFVDFLERVVVQRTIDRHPEVFRDASPIQRVTRNAPPFLVIHGSRDCVIPVEQARSFVERLRAVSRSQVGYLELPGAGHGFDLLDGARTGPTAHAIALFLNQVHRSRAQFAKEVI
With B4 the TG hydrolase activity [1] was 3.3 nmol/mg/min.

B5: LIPM: M. tuberculosis putative lipase/esterase gene product expressed in E. coli (protein, UniProt Q50681 1-431, looked up)
Probable carboxylic ester …: MGAPRLIHVIRQIGALVVAAVTAAATINAYRPLARNGFASLWSWFIGLVVTEFPLPTLASQLGGLVLTAQRLTRPVRAVSWLVAAFSALGLLNLSRAGRQADAQLTAALDSGLGPDRRTASAGLWRRPAGGGTAKTPGPLRMLRIYRDYAHDGDISYGEYGRANHLDIWRRPDLDLTGTAPVLFQIPGGAWTTGNKRGQAHPLMSHLAELGWICVAINYRHSPRNTWPDHIIDVKRALAWVKAHISEYGGDPDFIAITGGSAGGHLSSLAALTPNDPRFQPGFEEADTRVQAAVPFYGVYDFTRLQDAMHPMMLPLLERMVVKQPRTANMQSYLDASPVTHISADAPPFFVLHGRNDSLVPVQQARGFVDQLRQVSKQPVVYAELPFTQHAFDLLGSARAAHTAIAVEQFLAEVYATQHAGSEPGPAVAIP
modifications: expressed in E. coli
With B5 the TG hydrolase activity [1] was 0.02 nmol/mg/min.
